Experimental findings from patent publication US20260374766A1, “METHODS FOR TREATING CANCER” (Antares Therapeutics, Inc., priority 2022, published 2026) are described below.

The structures appear in SMILES notation. A value given as a limit tells only on which side of the number the result lay.

Assay [1] has as its target p53 Y220C (Homo sapiens, UniProt P04637, Y220C). Nature of the assay: Luciferase Reporter Assay (Luc), p53 response element, NClH1299 cells with inducible p53 Y220C. Format: cell-based. The following applies: luciferase reporter, NClH1299 inducible p53 Y220C, 6 hour; for AC50: read-out: Luc P53 Y220C AC50. The essentials:
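Luciferase activity is measured directly after One-Glo addition and a 5-minute room-temperature shake. Before that, cells plated at 5,000 per well receive doxycycline at 0.5 ug/mL for 24 hours, followed by compound for 6 hours.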
For orientation: In a reporter assay the amount or activity of a reporter protein is the signal.

For assay [2], the system named is H1299 p53 Y220C. Nature of the assay: Cell Proliferation Assay (CellTiter-Glo, CTG), H1299 p53 Y220C (NClH1299-inducible p53 Y220C). The format is cell-based. The following applies: Homo sapiens, NCI-H1299, 120 h, NClH1299-inducible p53 Y220C cells, 5 days, CellTiter-Glo. The procedure, abridged:
(§1)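 NClH1299 lines stably transduced with Tet-inducible p53 Y220C or R273H, plus NUGC3, were treated with compound for 5 days at 250-500 cells/well. IC50 derived from CellTiter-Glo luminescent signal after 10 min room-temperature incubation.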
In general terms: Cellular ATP, detected with luciferase, serves as a proxy for viable cell number.

Assay [3] addresses T1, p53 Y220C mutant protein (amino acid residues 94-293) (Homo sapiens, UniProt P04637, Y220C).
T1 construct: p53 Y220C mutant protein (amino acid residues 94-293)
Nature of the assay: Thermal Shift Assay (TSA), dTM. The format is binding. To be noted: p53 Y220C, read-out: TSA P53 Y220C dTM; for ΔTm at 10 µM: 10 uM compound; for ΔTm at 100 µM: 100 uM compound. The essentials:
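First, the mutant DNA-binding domain (5 μM) was preincubated 3 hours at 20 °C with compound at 10 μM or 100 μM. Next, the sample was heated from 30 °C to 50 °C at 0.03 °C/second in the presence of Sypro Orange. Finally, TM was obtained from a two-state Boltzmann fit.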

The target of assay [4] is T1, p53 Y220C mutant protein (amino acid residues 94-293). Nature of the assay: Surface Plasmon Resonance (SPR) assay, Kd_kinetic. Format: binding. The following applies: SPR; p53 Y220C; read-out: SPR P53 Y220C KD kinetic. The procedure, abridged: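 Temperature held at 16 or 20 °C during Biacore 8K runs. Buffer: 50 mM Tris, pH 7.5, 100 mM NaCl, 1 mM DTT, 0.01% Brij35, 0.05% Tween-20, 1% DMSO.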

Assay [5] deals with H1299 p53 R273H. The assay can be described thus: Cell Proliferation Assay (CellTiter-Glo, CTG), H1299 p53 R273H (NClH1299-inducible p53 R273H). The format is cell-based. To be noted: Homo sapiens, NCI-H1299, 120 h, NClH1299-inducible p53 R273H cells, 5 days, CellTiter-Glo. The essentials:
as §1

Assay [6] concerns NUGC3 p53 Y220C. Nature of the assay: Cell Proliferation Assay (CellTiter-Glo, CTG), NUGC3 p53 Y220C. The format is cell-based. The following applies: Homo sapiens, NUGC-3, 120 h, NUGC3 cells, 5 days, CellTiter-Glo. The essentials: as §1

For the molecule `CNC(=O)c1ccc(OC)c(NCC#Cc2nc3c(N[C@H]4C[C@@H]5CC[C@H]4N5)cccn3c2SC(F)(F)F)c1` [Example 245], in assay [1], the AC50 – broadly, the midpoint of the concentration-response curve, whichever way the signal moves – lay in the range of 1.5 to 3 µM and the Emax (as a rule, the maximal effect, on the per cent scale that the assay sets) is less than 70%. In assay [2], the IC50 (usually the concentration at which inhibition is half-maximal) lay within 1.5 to 3 µM. In assay [3], the ΔTm at 10 µM lay within 5 to 10 °C and the ΔTm at 100 µM was not below 10 °C. Also, in assay [4], the Kd (as a rule, the free concentration of one partner at which half of the binding sites on the other are occupied at equilibrium, for simple one-to-one binding) was less than 0.01 µM. The molecule further had an IC50 in assay [5] of 8 to 10 µM. The molecule further yielded an IC50 in assay [6] of less than 0.75 µM.
With `CNC(=O)c1ccc(OC)c(NCC#Cc2nn3c(N[C@@H]4CNC[C@@H]4F)cccc3c2SC(F)(F)F)c1` [Example 250], the AC50 in assay [1] was less than 0.75 µM. The molecule further registered a maximal effect (Emax) in assay [1] of 80 to 90%. Also, the IC50 in assay [2] is less than 0.75 µM; in assay [5] it was 5 to 8 µM; in assay [6], less than 0.75 µM. In assay [3], the ΔTm at 10 µM is not below 10 °C. Further, the Kd in assay [4] was less than 0.01 µM.
As to `CNC(=O)c1ccc(OC)c(NCC#Cc2nn3c(N[C@@H]4CN(C)C[C@@H]4F)cccc3c2SC(F)(F)F)c1` [Example 252], the AC50 in assay [1] is less than 0.75 µM. For the same molecule, the Emax in assay [1] lay within 80 to 90%. In addition, the IC50 in assay [2] is less than 0.75 µM; in assay [5] it was not below 10 µM; in assay [6] it was less than 0.75 µM. Further, in assay [3], the ΔTm at 10 µM was not below 10 °C. Further, the Kd in assay [4] is less than 0.01 µM.
Take `CNC(=O)c1ccc(OC)c(NCC#Cc2nn3c(N[C@@H]4CN(C)C[C@@H]4F)cccc3c2SC(F)(F)F)n1` [Example 253]: the AC50 in assay [1] is less than 0.75 µM. The Emax in assay [1] fell in the range of 80 to 90%. Besides, the IC50 in assay [2] is less than 0.75 µM; in assay [5], not below 10 µM; in assay [6], less than 0.75 µM. In addition, the ΔTm at 10 µM in assay [3] was not below 10 °C. Also, the Kd in assay [4] is less than 0.01 µM.
For the molecule `CNC(=O)c1cnc(OC)c(NCC#Cc2nc3c(N[C@@H]4CCN(C)C[C@@H]4F)nccn3c2SC(F)(F)F)c1` [Example 254], in assay [1], the AC50 is less than 0.75 µM. Besides, the Emax in assay [1] fell in the range of 80 to 90%. For the same molecule, the values for the IC50 in assay [2], in assay [5] and in assay [6] were less than 0.75 µM, not below 10 µM and less than 0.75 µM, respectively. The ΔTm at 10 µM in assay [3] was not below 10 °C. The Kd in assay [4] is less than 0.01 µM.
As for `CNC(=O)c1cnc(OC)c(NCC#Cc2cc3c(N[C@@H]4CCN(C)C[C@@H]4F)nccn3c2SC(F)(F)F)c1` [Example 255], in assay [1], the AC50 is less than 0.75 µM and the Emax was more than 90%. In assay [2], this molecule came in with an IC50 of less than 0.75 µM. Also, in assay [3], the ΔTm at 10 µM is not below 10 °C and the ΔTm at 100 µM is not below 10 °C. Also, the Kd in assay [4] is less than 0.01 µM. Also, in assay [5], the half-maximal inhibitory concentration (IC50) was in the range of 8 to 10 µM. In addition, the IC50 in assay [6] was less than 0.75 µM.
For the molecule `CNC(=O)c1cnc(OC)c(NCC#Cc2cc3c(N[C@@H]4CCN(C)C[C@@H]4F)cccn3c2SC(F)(F)F)c1` [Example 256], the AC50 in assay [1] was less than 0.75 µM. In assay [1], this molecule had an Emax of more than 90%. The IC50 in assay [2] is less than 0.75 µM; in assay [5], 5 to 8 µM; in assay [6], less than 0.75 µM. Further, in assay [3], the ΔTm at 10 µM is not below 10 °C. For the same molecule, in assay [4], the Kd is less than 0.01 µM.
As for `COc1cc(P(C)(C)=O)ccc1NCC#Cc1cc2c(N[C@@H]3CCN(C)C[C@@H]3F)nccn2c1SC(F)F` [Example 257], in assay [1], the AC50 was less than 0.75 µM. Besides, in assay [1], the Emax is 80 to 90%. For the same molecule, the IC50 in assay [2] is less than 0.75 µM; in assay [5], not below 10 µM; in assay [6] it was less than 0.75 µM. The ΔTm at 10 µM in assay [3] is not below 10 °C. In addition, the dissociation constant (Kd) in assay [4] is less than 0.01 µM.
With `CNC(=O)c1cnc(OC)c(NCC#Cc2nc3c(N[C@@H]4CCNC[C@@H]4F)cccn3c2SC(F)(F)F)c1` [Example 258], the AC50 in assay [1] is less than 0.75 µM. In assay [1], the Emax is 70 to 80%. In addition, the IC50 in assay [2] was less than 0.75 µM; in assay [5], not below 10 µM; in assay [6] it was less than 0.75 µM. Also, the ΔTm at 10 µM in assay [3] was not below 10 °C. The Kd in assay [4] was less than 0.01 µM.
Turning to `CNC(=O)c1cnc(OC)c(NCC#Cc2nn3c(N[C@@H]4CCN(C)C[C@@H]4F)cccc3c2SC(F)(F)F)c1` [Example 260], the AC50 in assay [1] was less than 0.75 µM. Besides, the Emax in assay [1] lay in the range of 80 to 90%. The IC50 was less than 0.75 µM in assay [2], 8 to 10 µM in assay [5] and less than 0.75 µM in assay [6]. Further, the ΔTm at 10 µM in assay [3] was not below 10 °C. Moreover, in assay [4], the Kd is less than 0.01 µM.
